Reference: patent publication US8779202B2, “Compositions and methods for the treatment of giardiasis” (Georgetown University, priority 2009, dated 2014)

Columns and labels:
Giardia parasites = assay: Video microscopy of parasite morphology and dynamics; assay type: cell-based, Giardia lamblia; conditions: for Observed Parasite Morphology and Dynamics: Table I, video microscopy at 50, 15, 10, 5 and 1 μM
Experimental: A series of video microscopy studies were undertaken to examine the effect of the compounds on parasite morphology and dynamics. Short 1 minute videos of parasite behavior were recorded using DIC optics on a Zeiss AXIOPLAN microscope (Carl Zeiss Microimaging GmbH, Germany) using a Photometrics CCD camera (Photometrics, Inc.; Tucson, Ariz.). Recordings were made on at least three separate occasions at compound concentrations of 50 μM, 15 μM, 10 μM, 5 μM, and 1 μM to allow comparison to the dose-response curves in the attachment assay. Four broad categories of compound action were found (see Table I).

[1] = tested on: Giardia parasite cultures; assay: Reversibility of compound effect on Giardia viability and attachment; assay type: cell-based, Giardia lamblia; conditions: 15 μM, 30 minutes-2 hours in PBS at 37° C., wash, 48 hours in growth media
Experimental: Parasite cultures were treated for 30 minutes—2 hours with 15 μM of Compounds I-16, III-1, IV-1, V-1, VI-1, VII-1, and VIII-2A in PBS at 37° C. Parasites were then washed with warm PBS to remove compounds, and were placed in normal Giardia growth media for an additional 48 hours. […] All comparisons were made to cultures of untreated Giardia.

Molecule	effect on parasite morphology and activity (Giardia parasites)	Observed Parasite Morphology and Dynamics (Giardia parasites)	reversibility of effect on parasite attachment and viability [1]
Oc1ccc2ccccc2c1CN(Cc1c(O)ccc2ccccc12)C1CCCCC1 [Compound I-16]	no observable effect on parasite morphology and activity, but did significantly reduce attachment	Parasites appear normal in morphology and activity,	largely reversible
CC(Br)C(=O)c1ccc2cc(Br)c3ccccc3c2c1 (centres unmarked) [Compound III-1]	profoundly disrupted parasite morphology or simply destroyed the parasites	Parasites display a profoundly disrupted morphology	irreversible
O=C1C=C(N2CCN(c3ccccn3)CC2)C(=O)c2c(O)ccc(O)c21 [Compound IV-1]	profoundly disrupted parasite morphology or simply destroyed the parasites	Parasites display a profoundly disrupted morphology	irreversible
Nc1nc(SCc2ccccc2[N+](=O)[O-])c2[nH]cnc2n1 [Compound V-1]	disrupted peripheral morphology, resulting either in loss of overall shape or localized membrane blebbing		largely reversible
Cc1c(Cl)cc(C(C)(C)C)c(O)c1Cc1c(C)c(Cl)cc(C(C)(C)C)c1O [Compound VI-1]	disrupted peripheral morphology, resulting either in loss of overall shape or localized membrane blebbing	Parasites display disrupted peripheral morphology,	largely reversible
C[C@H]1CC[C@@H]2[C@@H](C)[C@H]3[C@H](C[C@H]4[C@@H]5CC=C6C[C@@H](O)CC[C@]6(C)[C@H]5CC[C@]34C)N2C1 [Compound VIII-2A]	no observable effect on parasite morphology and activity, but did significantly reduce attachment	Parasites appear normal in morphology and activity,	largely reversible
Nogalamycin [Compound VII-1]	no observable effect on Giardia morphology, but did cause flagellar paralysis	Parasites display disrupted peripheral morphology,	largely reversible
